In paper PMC5110965, “Evolutionarily conserved odorant receptor function questions ecological context of octenol role in mosquitoes” (Scientific Reports, 2016):
pEC50: −log10 of the molar value.

Key:
TaOR8 [1] = tested on: T1, TaOR8; assay: two-electrode voltage clamp in Xenopus oocytes, concentration-response; type: cell-based, Toxorhynchites amboinensis
T1 construct: gene Or8; with TaORco

TaOR8 [2] = tested on: T1, TaOR8; assay: two-electrode voltage clamp; […] DEET against […] (R)-octenol response; type: cell-based, Toxorhynchites amboinensis; conditions: 1000 µM

| Compound | pEC50 (TaOR8 [1]) | % inhibition at 10^-3 M (TaOR8 [2]) |
| --- | --- | --- |
| C=C[C@H](O)CCCCC [(R), (R)-(−)-1-octen-3-ol] | 6.40 | – |
| CCN(CC)C(=O)c1cccc(C)c1 [DEET, N,N-Diethyl-meta-toluamide] | – | 90 |
| C=C[C@@H](O)CCCCC [(S), (S)-(+)-1-octen-3-ol] | 4.30 | – |
| C=CC(O)CCCCC (racemic) [(RS), (RS)-1-octen-3-ol] | 5.48 | – |
